Measurements from patent US20230346770A1 (priority 2020, published 2023).

Assay: Phase 1 crossover drug-drug interaction study, plasma pharmacokinetics in healthy adults
Settings: for median tmax: both periods
[1] = Treatment B (with clarithromycin), Period 1
[2] = Treatment B (with clarithromycin), Period 2

For `CNCC[C@@](O)(c1cccc2ccccc12)[C@H](c1ccccc1)c1cc2cc(Br)ccc2nc1OC` [M2], the “AUC72h higher in Period 2 as compared to Period 1” value (Treatment A) was 41%, the “AUC240h higher in Period 2 as compared to Period 1” value (Treatment A) was 46% and the “Cmax higher in Period 2 as compared to Period 1” value (Treatment A) was 36%. The “Cmax (mean)” value (Treatment A (single dose 100 mg bedaquiline alone), Period 1, n=8) was 12.0 ng/mL, the “Cmax (mean)” value (Treatment A (single dose 100 mg bedaquiline alone), Period 2, n=8) was 16.3 ng/mL and the “AUC72 h (mean)” value (Treatment A, Period 1) was 637 ng·h/mL. The “AUC240 h (mean)” value (Treatment A, Period 1) was 1839 ng·h/mL, the “M/P ratio AUC72 h (M2/bedaquiline, corrected for molecular weight)” value (“M/P ratio AUC72 h” below) (Treatment A, Period 1) was 0.0481 and the “M/P ratio AUC240 h (M2/bedaquiline, corrected for molecular weight)” value (“M/P ratio AUC240 h” for short) (Treatment A, Period 1) was 0.110. For the same compound, the “M/P ratio Cmax (M2/bedaquiline, corrected for molecular weight)” value (Treatment A, Period 1) was 0.00936, the “tmax (median)” value (Treatment A, Period 1) was 12.00 h and the “AUC72 h (mean)” value (Treatment A, Period 2) was 898 ng·h/mL. The “AUC240 h (mean)” value (Treatment A, Period 2) was 2691 ng·h/mL, the “M/P ratio AUC72 h” value (Treatment A, Period 2) was 0.0670 and the “M/P ratio AUC240 h” value (Treatment A, Period 2) was 0.141. For the same compound, the “M/P ratio Cmax (M2/bedaquiline, corrected for molecular weight)” value (Treatment A, Period 2) was 0.0142, the “tmax (median)” value (Treatment A, Period 2) was 12.00 h and the median tmax (Treatment A) was 12.00 h. The “AUC72h higher in Period 2 as compared to Period 1” value (Treatment B) was 2.1 fold, the “AUC240h higher in Period 2 as compared to Period 1” value (Treatment B) was 2.1 fold and the “Cmax higher in Period 2 as compared to Period 1” value (Treatment B) was 2.2 fold. For the same compound, the “Cmax (mean)” value (Treatment B (100 mg bedaquiline on Day 5 of clarithromycin 500 mg q12h Days 1-14), Period 1, n=8) was 4.66 ng/mL, the “Cmax (mean)” value (Treatment B (100 mg bedaquiline on Day 5 of clarithromycin 500 mg q12h Days 1-14), Period 2, n=8) was 9.89 ng/mL and the “AUC72 h (mean)” value [1] was 260 ng·h/mL. For the same compound, the “AUC240 h (mean)” value [1] was 886 ng·h/mL, the “M/P ratio AUC72 h” value [1] was 0.0183 and the “M/P ratio AUC240 h” value [1] was 0.0460. The “M/P ratio Cmax (M2/bedaquiline, corrected for molecular weight)” value [1] was 0.0039, the “tmax (median)” value [1] was 35.92 h and the “AUC72 h (mean)” value [2] was 543 ng·h/mL. The “AUC240 h (mean)” value [2] was 1884 ng·h/mL, the “M/P ratio AUC72 h” value [2] was 0.0347 and the “M/P ratio AUC240 h” value [2] was 0.0881. The “M/P ratio Cmax (M2/bedaquiline, corrected for molecular weight)” value [2] was 0.00798, the “tmax (median)” value [2] was 23.90 h and the median tmax (Treatment B (with clarithromycin)) was 23.91 h. For the same compound, the “reduction of AUC72h with clarithromycin co-administration” value (Treatment B vs Treatment A) was 51%, the “reduction of AUC240h with clarithromycin co-administration” value (Treatment B vs Treatment A) was 42% and the “reduction of Cmax with clarithromycin co-administration” value (Treatment B vs Treatment A) was 52%. The “reduction of M/P ratio AUC72h with clarithromycin co-administration” value (Treatment B vs Treatment A) was 56%, the “reduction of M/P ratio AUC240h with clarithromycin co-administration” value (Treatment B vs Treatment A) was 49% and the “reduction of M/P ratio Cmax with clarithromycin co-administration” value (Treatment B vs Treatment A) was 52%. For the same compound, the “time of maximum mean plasma concentration” value (both treatment groups) was 12 hours post-dose, the “plasma concentration quantifiable until” value (both treatments) was 240 hours post-dose and the “pre-dose plasma concentration in Period 2 relative to Cmax after the Period 2 single dose” value (prior to the Period 2 single dose of bedaquiline (carry-over)) was over 10%.
